# Experiments:
# P. aeruginosa ATCC 27853 = assay: MIC assay (CLSI broth microdilution), APAE001; assay type: cell-based; conditions: APAE001 is ATCC27853 (P. aeruginosa), Mueller Hinton Broth, 35 C, 20 hours; for MIC: Pseudomonas aeruginosa
# Method: (§1) Minimum inhibitory concentrations (MIC) were determined by reference Clinical and Laboratory Standards Institute (CLSI) broth microdilution methods per M7-A7 [2006]. Quality control ranges utilizing E. coli ATCC 25922, P. aeruginosa ATCC 27853 and S. aureus ATCC 29213, and interpretive criteria for comparator agents were as published in CLSI M100-S17 [2007]. Briefly, serial two-fold dilutions of the test compounds were prepared at 2× concentration in Mueller Hinton Broth. The compound dilutions were mixed in 96-well assay plates in a 1:1 ratio with bacterial inoculum. The inoculum was prepared by suspension of a colony from an agar plate that was prepared the previous day. Bacteria were suspended in sterile saline and added to each assay plate to obtain a final concentration of 5×10^5 CFU/mL. The plates were incubated at 35 C for 20 hours in ambient air.
# E. coli ATCC 25922 = assay: MIC assay (CLSI broth microdilution), AECO001; assay type: cell-based; conditions: AECO001 is ATCC25922 (E. coli), Mueller Hinton Broth, 35 C, 20 hours; for MIC: Escherichia coli
# Method: as §1
Compound,MIC (P. aeruginosa ATCC 27853),MIC (E. coli ATCC 25922),MIC APAE001 (P. aeruginosa ATCC 27853),MIC AECO001 (E. coli ATCC 25922)
"NC[C@@H]1CC[C@@H](N)[C@@H](O[C@H]2[C@H](O[C@@H]3O[C@H](CO)[C@@H](O[C@H]4O[C@@H](CN)CC[C@H]4N)[C@H]3O)[C@@H](O)[C@H](NCCC(N)=O)C[C@@H]2N)O1 [Example 11/Compound 3, 3′,4′,3′″,4′″-tetra-deoxy-1-(3-propionamide)-neomycin]",1 to 16 µg/mL,1 to 16 µg/mL,,
"NCC(O)CN[C@@H]1C[C@H](N)[C@@H](O[C@H]2O[C@H](CN)CC[C@H]2N)[C@H](O[C@@H]2O[C@H](CO)[C@@H](O[C@H]3O[C@@H](CN)CC[C@H]3N)[C@H]2O)[C@H]1O (stereo partly shown) [Example 12/Compound 3, 3′,4′,3′″,4′″-tetra-deoxy-1-(2-hydroxy-3-amino-propyl)-neomycin]",≤ 1 µg/mL,1 to 16 µg/mL,,
"NC[C@@H]1CC[C@@H](N)[C@@H](O[C@H]2[C@H](O[C@@H]3O[C@H](CO)[C@@H](O[C@H]4O[C@@H](CN)CC[C@H]4N)[C@H]3O)[C@@H](O)[C@H](NCCO)C[C@@H]2N)O1 [Example 15/Compound 3, 3′,4′,3′″,4′″-tetra-deoxy-1-(2-hydroxyethyl)-neomycin]",1 to 16 µg/mL,1 to 16 µg/mL,,
"NC[C@@H]1CC[C@@H](N)[C@@H](O[C@H]2[C@H](O[C@@H]3O[C@H](CO)[C@@H](O[C@H]4O[C@@H](CN)CC[C@H]4N)[C@H]3O)[C@@H](O)[C@H](NC(=O)[C@@H](O)[C@H](F)CN)C[C@@H]2N)O1 [Example 24/Compound 8, 3′,4′,3′″,4′″-tetra-deoxy-1-(4-amino-3(R)-fluoro-2(R)-hydroxy-butyryl)-neomycin]",≤ 1 µg/mL,≤ 1 µg/mL,,
"NCC[C@H](O)C(=O)N[C@@H]1C[C@H](N)[C@@H](O[C@H]2O[C@H](CO)CC[C@H]2N)[C@H](O[C@@H]2O[C@H](CO)[C@@H](O[C@H]3O[C@@H](CN)CC[C@H]3N)[C@H]2O)[C@H]1O [Example 1/Compound 16, 3′,4′,3′″,4′″-tetradeoxy-1-(4-amino-2(S)-hydroxy-butyryl)-paromomycin]",> 16 µg/mL,1 to 16 µg/mL,,
"NC[C@@H]1CC[C@@H](N)[C@@H](O[C@H]2[C@H](O[C@@H]3O[C@H](CO)[C@@H](O[C@H]4O[C@@H](CN)CC[C@H]4N)[C@H]3O)[C@@H](O)[C@H](NC(CO)CO)C[C@@H]2N)O1 [Example 21/Compound 3, 3′,4′,3′″,4′″-tetra-deoxy-1-(2-hydroxy-1-hydroxymethyl-ethyl)-neomycin]",1 to 16 µg/mL,1 to 16 µg/mL,,
"NCC[C@H](O)C(=O)N[C@@H]1C[C@H](N)[C@@H](O[C@H]2O[C@H](CN)CC[C@H]2N)[C@H](O[C@@H]2O[C@H](CO)[C@@H](O[C@H]3O[C@@H](CN)CC[C@H]3N)[C@H]2O)[C@H]1O [Example 4/Compound 5, 3′,4′,3′″,4′″-tetra-dehydro-1-(4-amino-2(S)-hydroxy-butyryl)-neomycin]",≤ 1 µg/mL,1 to 16 µg/mL,,
"NC[C@@H]1CC[C@@H](N)[C@@H](O[C@H]2[C@H](O[C@@H]3O[C@H](CO)[C@@H](O[C@H]4O[C@@H](CN)CC[C@H]4N)[C@H]3O)[C@@H](O)[C@H](NC(=O)[C@H](O)[C@H](O)CN)C[C@@H]2N)O1 [Example 29/Compound 6, 3′,4′,3′″,4′″-tetra-deoxy-1-(4-amino-3,2-(R,R)-bis-hydroxy-butyryl)-neomycin]",≤ 1 µg/mL,1 to 16 µg/mL,,
"NC[C@@H]1CC[C@@H](N)[C@@H](O[C@H]2[C@H](O[C@@H]3O[C@H](CO)[C@@H](O[C@H]4O[C@@H](CN)CC[C@H]4N)[C@H]3O)[C@@H](O)[C@H](NC(=O)[C@@H](O)C(F)(F)CN)C[C@@H]2N)O1 [Example 26/Compound 6, 3′,4′,3′″,4′″-tetra-deoxy-1-(4-amino-3,3-bisfluoro-2(R)-hydroxy-butyryl)-neomycin]",≤ 1 µg/mL,≤ 1 µg/mL,,
NCC[C@H](O)C(=O)N[C@@H]1C[C@H](N)[C@@H](O[C@H]2O[C@H](CN)CC[C@H]2N)[C@H](O[C@@H]2O[C@H](CO)[C@@H](O[C@H]3O[C@H](CN)CC[C@H]3N)[C@H]2O)[C@H]1O [Example 6/Compound 9],1 to 16 µg/mL,1 to 16 µg/mL,,
"NC[C@@H]1CC[C@@H](N)[C@@H](O[C@H]2[C@H](O[C@@H]3O[C@H](CO)[C@@H](O[C@H]4O[C@@H](CN)CC[C@H]4N)[C@H]3O)[C@@H](O)[C@H](NCc3cccc(O)c3)C[C@@H]2N)O1 [Example 16/Compound 3, 3′,4′,3′″,4′″-tetra-deoxy-1-(3-hydroxybenzyl)-neomycin]",1 to 16 µg/mL,1 to 16 µg/mL,,
"NC[C@@H]1CC[C@@H](N)[C@@H](O[C@H]2[C@H](O[C@@H]3O[C@H](CO)[C@@H](O[C@H]4O[C@@H](CN)CC[C@H]4N)[C@H]3O)[C@@H](O)[C@H](NC(=O)[C@@H](N)CO)C[C@@H]2N)O1 [Example 20/Compound 3, 3′,4′,3′″,4′″-tetra-deoxy-1-(2(S)-amino-3-hydroxy-propionyl)-neomycin]",1 to 16 µg/mL,1 to 16 µg/mL,,
"3′,4′,3′″,4′″-tetra-deoxy-1-(3-amino-propionyl)-neomycin [Example 14/Compound 4]",,,B (MIC's of greater than 1.0 μg/mL to 16.0 μg/mL = B),B (MIC's of greater than 1.0 μg/mL to 16.0 μg/mL = B)
"NC[C@@H]1CC[C@@H](N)[C@@H](O[C@H]2[C@H](O[C@@H]3O[C@H](CO)[C@@H](O[C@H]4O[C@@H](CN)CC[C@H]4N)[C@H]3O)[C@@H](O)[C@H](NCC(O)CO)C[C@@H]2N)O1 (stereo partly shown) [Example 18/Compound 3, 3′,4′,3′″,4′″-tetra-deoxy-1-(2,3-bis-hydroxy-propyl)-neomycin]",≤ 1 µg/mL,1 to 16 µg/mL,,
"NCCS(=O)(=O)N[C@@H]1C[C@H](N)[C@@H](O[C@H]2O[C@H](CN)CC[C@H]2N)[C@H](O[C@@H]2O[C@H](CO)[C@@H](O[C@H]3O[C@@H](CN)CC[C@H]3N)[C@H]2O)[C@H]1O [Example 23/Compound 4, 3′,4′,3′″,4′″-tetra-deoxy-1-(2-amino-ethylsulfonamide)-neomycin]",,1 to 16 µg/mL,,
"N#CCCC(=O)N[C@@H]1C[C@H](N)[C@@H](O[C@H]2O[C@H](CN)CC[C@H]2N)[C@H](O[C@@H]2O[C@H](CO)[C@@H](O[C@H]3O[C@@H](CN)CC[C@H]3N)[C@H]2O)[C@H]1O [Example 14/Compound 3, 3′,4′,3′″,4′″-tetra-deoxy-1-(3-cyano-propionyl)-neomycin]",> 16 µg/mL,1 to 16 µg/mL,,
"N=C(N)NCC[C@H](O)C(=O)N[C@@H]1C[C@H](N)[C@@H](O[C@H]2O[C@H](CN)CC[C@H]2N)[C@H](O[C@@H]2O[C@H](CO)[C@@H](O[C@H]3O[C@@H](CN)CC[C@H]3N)[C@H]2O)[C@H]1O [Example 17/Compound 4, 3′,4′,3′″,4′″-tetra-deoxy-1-(2(S)-hydroxy-4-guanidino-butyryl)-neomycin]",≤ 1 µg/mL,1 to 16 µg/mL,,
NCCCS(=O)(=O)N[C@@H]1C[C@H](N)[C@@H](O[C@H]2O[C@H](CN)CC[C@H]2N)[C@H](O[C@@H]2O[C@H](CO)[C@@H](O[C@H]3O[C@@H](CN)CC[C@H]3N)[C@H]2O)[C@H]1O [Example 7/Compound 4],≤ 1 µg/mL,1 to 16 µg/mL,,
"NC[C@@H]1CC[C@@H](N)[C@@H](O[C@H]2[C@H](O[C@@H]3O[C@H](CO)[C@@H](O[C@H]4O[C@@H](CN)CC[C@H]4N)[C@H]3O)[C@@H](O)[C@H](NC(=O)[C@@H](O)CN)C[C@@H]2N)O1 [Example 13/Compound 4, 3′,4′,3′″,4′″-tetra-deoxy-1-(2(S)-hydroxy-3-amino-propionyl)-neomycin]",≤ 1 µg/mL,1 to 16 µg/mL,,
"NC[C@@H]1CC[C@@H](N)[C@@H](O[C@H]2[C@H](O[C@@H]3O[C@H](CO)[C@@H](O[C@H]4O[C@@H](CN)CC[C@H]4N)[C@H]3O)[C@@H](O)[C@H](NC(=O)[C@H](O)[C@@H](F)CN)C[C@@H]2N)O1 [Example 25/Compound 8, 3′,4′,3′″,4′″-tetra-deoxy-1-(4-amino-3(S)-fluoro-2(S)-hydroxy-butyryl)-neomycin]",≤ 1 µg/mL,≤ 1 µg/mL,,
"NCC(=O)N[C@@H]1C[C@H](N)[C@@H](O[C@H]2O[C@H](CN)CC[C@H]2N)[C@H](O[C@@H]2O[C@H](CO)[C@@H](O[C@H]3O[C@@H](CN)CC[C@H]3N)[C@H]2O)[C@H]1O [Example 19/Compound 3, 3′,4′,3′″,4′″-tetra-deoxy-1-(2-aminoacetyl)-neomycin]",1 to 16 µg/mL,1 to 16 µg/mL,,
"NC[C@@H]1CC[C@@H](N)[C@@H](O[C@H]2[C@H](O[C@@H]3O[C@H](CO)[C@@H](O[C@H]4O[C@@H](CN)CC[C@H]4N)[C@H]3O)[C@@H](O)[C@H](N)C[C@@H]2N)O1 [Example 3/Compound 6, 3′,4′,3′″,4′″-tetra-deoxy-neomycin]",≤ 1 µg/mL,≤ 1 µg/mL,,
NC[C@H]1CC[C@@H](N)[C@@H](O[C@H]2[C@@H](O)[C@H](O[C@@H]3[C@@H](O)[C@H](N)C[C@H](N)[C@H]3O[C@H]3O[C@H](CO)CC[C@H]3N)O[C@@H]2CO)O1 [Example 2/Compound 8],> 16 µg/mL,1 to 16 µg/mL,,
NCC[C@H](O)C(=O)N[C@@H]1C[C@H](N)[C@@H](O[C@H]2O[C@H](CN)C=C[C@H]2N)[C@H](O[C@@H]2O[C@H](CO)[C@@H](O[C@H]3O[C@@H](CN)C=C[C@H]3N)[C@H]2O)[C@H]1O [Example 5/Compound 7],≤ 1 µg/mL,1 to 16 µg/mL,,
CC(=O)N[C@@H]1C[C@H](N)[C@@H](O[C@H]2O[C@H](CN)CC[C@H]2N)[C@H](O[C@@H]2O[C@H](CO)[C@@H](O[C@H]3O[C@@H](CN)CC[C@H]3N)[C@H]2O)[C@H]1O [Example 8/Compound 3],1 to 16 µg/mL,1 to 16 µg/mL,,
